# Biological target: human recombinant GABAA α5β3γ2 receptor (Homo sapiens (Human), UniProt P18507+P31644)
# Test: Binding assay, [3H]Ro151788 displacement on membranes of HEK cells
# Settings: 0.5 nM [3H]Ro151788, 60 minutes at 4° C., Cheng-Prusoff; read-out: hGABAA α5 Ki
# Method: The GABAA α5β3γ2 protein used for the receptor binding assay was derived from membranes produced from HEK cells (Millipore CYL3073) expressing the human recombinant GABAA α5β3γ2 receptor. Cells were stored and cultured in-house according to the instructions provided by the vendor (Millipor). Cell pellet was homogenized in 10 times modified Krebs Henseleit buffer (membrane preparation buffer): 20 mM Tris, 120 mM NaCl, 100 mM KCl, 25 mM CaCl2) and 25 mM MgCl2 pH=7.4 at 4° C. using Ultra Turrax (Janke&Kunkel) maximal speed for 15 seconds. The homogenate was centrifuged at 40,000 g for 30 minutes at 4° C. Supernatant was discarded and the resulting pellet was washed in membrane preparation buffer. Pellet was resuspended in membrane preparation buffer and aliquots of 1.4 mL ampulles were stored at −70° C. until use.
# Receptor binding assays were performed in 96-well format in deep-well plates. For each 96-well plate one ampulle of membrane homogenate was thawed and diluted in binding buffer (50 mM Tris pH=7.4, 100 mM KCl) and 200 μL was dispensed into each well. Radioligand [^3H]Ro151788 (Perkin Elmer: NET757250UC) was prepared in binding buffer and added to each well in 50 μL volume to give final concentration of 0.5 nM. Test compounds in suitable concentration(s) were added in additional 50 μL. The final assay volume was 300 μL. Incubation was carried out for 60 minutes at 4° C. For non-specific binding 10 μM unlabeled diazepam was used. After incubation samples were filtered over UniFilter® GF/B™ using Filtermate Harvester (Perkin Elmer) and washed with 5×1 mL binding buffer. The plate was dried at 40° C. for an hour and 40 μL Microscint (Perkin Elmer) scintillation cocktail was added to each well. The plate was read in Microbeta (Perkin Elmer).
# The specific radioligand binding (SB) was defined as the difference between total binding (Tot) and the non-specific binding (NSB). Results are expressed as a percent inhibition of specific binding obtained in the presence of compound of interest.
# For IC50 and Ki determination a minimum of six drug concentrations in triplicate were used. […] Ki values (i.e. inhibition constants) were calculated using the Cheng-Prusoff equation Ki=IC50/[1+(L/KD)], where [L] is the radioligand concentration and KD the affinity of the labelled ligand for receptor. KD was determined from the Saturation analyses.
# human recombinant GABAA α5β3γ2 receptor, sequence (P31644 32-462): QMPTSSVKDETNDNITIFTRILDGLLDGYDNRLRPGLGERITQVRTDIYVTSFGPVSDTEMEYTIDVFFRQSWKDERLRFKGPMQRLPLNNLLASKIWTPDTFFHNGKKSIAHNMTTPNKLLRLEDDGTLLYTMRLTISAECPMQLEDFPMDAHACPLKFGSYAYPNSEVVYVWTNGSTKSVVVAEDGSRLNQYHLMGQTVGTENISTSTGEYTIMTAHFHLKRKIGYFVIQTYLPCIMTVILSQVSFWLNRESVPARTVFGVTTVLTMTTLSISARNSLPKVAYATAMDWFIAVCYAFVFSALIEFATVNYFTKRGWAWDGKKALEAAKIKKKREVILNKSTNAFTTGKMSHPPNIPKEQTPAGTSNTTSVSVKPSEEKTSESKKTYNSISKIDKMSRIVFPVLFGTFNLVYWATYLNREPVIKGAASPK
# human recombinant GABAA α5β3γ2 receptor, sequence (P28472 26-473 partner): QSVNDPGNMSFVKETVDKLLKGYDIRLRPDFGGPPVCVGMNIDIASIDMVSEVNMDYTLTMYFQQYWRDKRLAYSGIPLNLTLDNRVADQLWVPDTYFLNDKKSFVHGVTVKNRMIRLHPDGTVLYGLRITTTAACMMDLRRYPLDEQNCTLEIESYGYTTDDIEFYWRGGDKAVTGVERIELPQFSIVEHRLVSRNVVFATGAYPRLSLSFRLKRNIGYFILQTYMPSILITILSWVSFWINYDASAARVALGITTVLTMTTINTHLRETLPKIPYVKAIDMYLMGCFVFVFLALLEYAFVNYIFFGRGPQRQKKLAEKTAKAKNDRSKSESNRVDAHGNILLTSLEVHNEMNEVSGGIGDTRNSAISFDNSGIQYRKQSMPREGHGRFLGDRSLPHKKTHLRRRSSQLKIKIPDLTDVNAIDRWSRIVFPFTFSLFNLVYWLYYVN
# human recombinant GABAA α5β3γ2 receptor, sequence (P18507 40-475): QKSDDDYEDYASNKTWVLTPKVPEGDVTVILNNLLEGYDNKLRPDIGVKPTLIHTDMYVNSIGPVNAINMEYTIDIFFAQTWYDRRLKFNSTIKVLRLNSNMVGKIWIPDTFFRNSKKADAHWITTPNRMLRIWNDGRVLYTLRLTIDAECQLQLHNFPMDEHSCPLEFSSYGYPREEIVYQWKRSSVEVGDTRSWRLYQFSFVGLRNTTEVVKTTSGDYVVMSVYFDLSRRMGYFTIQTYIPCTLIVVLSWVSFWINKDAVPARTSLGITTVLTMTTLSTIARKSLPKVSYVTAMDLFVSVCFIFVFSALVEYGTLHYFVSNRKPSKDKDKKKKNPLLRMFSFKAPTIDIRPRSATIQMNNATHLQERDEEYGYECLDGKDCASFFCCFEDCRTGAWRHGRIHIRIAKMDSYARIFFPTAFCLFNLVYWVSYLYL
row,Ki,Structure (SMILES)
1,57 nM,"Cc1nnn(-c2ccc(F)cc2)c1COc1ccc2c(n1)CCN(C(=O)C(C)C)C2 [Example 22, 1-(2-{[1-(4-fluorophenyl)-4-methyl-1H-1,2,3-triazol-5-yl]methoxy}-5,6,7,8-tetrahydro-1,6-naphthyridin-6-yl)-2-methylpropan-1-one]"
2,31 nM,"Cc1nnn(-c2ccc(F)cc2)c1COc1ccc2c(n1)CN(C(=O)C(C)(C)C)C2 [Example 59, 1-(2-{[1-(4-fluorophenyl)-4-methyl-1H-1,2,3-triazol-5-yl]methoxy}-5H,6H,7H-pyrrolo[3,4-b]pyridin-6-yl)-2,2-dimethylpropan-1-one]"
3,13 nM,"Cc1nnn(-c2ccc(F)cc2)c1COc1ccc2c(n1)CN(C(=O)C1CCOCC1)C2 [Example 55, 1-(4-fluorophenyl)-4-methyl-5-({[6-(oxane-4-carbonyl)-5H,6H,7H-pyrrolo[3,4-b]pyridin-2-yl]oxy}methyl)-1H-1,2,3-triazole]"
4,7.5 nM,"CC(=O)N1Cc2ccc(OCc3c(-c4ccc(Cl)cc4)nnn3C)nc2C1 [Example 68, 1-(2-{[4-(4-chlorophenyl)-1-methyl-1H-1,2,3-triazol-5-yl]methoxy}-5,7-dihydro-6H-pyrrolo[3,4-b]pyridin-6-yl)ethanone]"
5,20 nM,"CC(=O)N1Cc2ccc(OCc3c(-c4ccc(F)cc4)nnn3C)nc2C1 [Example 67, 1-(2-{[4-(4-fluorophenyl)-1-methyl-1H-1,2,3-triazol-5-yl]methoxy}-5,7-dihydro-6H-pyrrolo[3,4-b]pyridin-6-yl)ethanone]"
6,46 nM,"CCC(=O)N1CCc2nc(OCc3c(C)nnn3-c3ccc(F)cc3)ccc2C1 [Example 24, 1-(2-{[1-(4-fluorophenyl)-4-methyl-1H-1,2,3-triazol-5-yl]methoxy}-5,6,7,8-tetrahydro-1,6-naphthyridin-6-yl)propan-1-one]"
7,28 nM,"Cc1nnn(-c2ccc(F)cc2)c1COc1ccc2c(n1)CN(C(=O)c1cccnc1)C2 [Example 65, 3-(2-{[1-(4-fluorophenyl)-4-methyl-1H-1,2,3-triazol-5-yl]methoxy}-5H,6H,7H-pyrrolo[3,4-b]pyridine-6-carbonyl)pyridine]"
8,0.8 nM,"CC(=O)N1Cc2ccc(OCc3c(-c4ccc(F)cc4)noc3C)nc2C1 [Example 50, 1-(2-{[3-(4-fluorophenyl)-5-methyl-1,2-oxazol-4-yl]methoxy}-5,7-dihydro-6H-pyrrolo[3,4-b]pyridin-6-yl)ethanone]"
9,67 nM,"Cc1nnn(-c2ccc(F)cc2)c1COc1ccc2c(n1)CCN(C(=O)[C@H]1CCC(=O)N1C)C2 [Example 41, (5R)-5-(2-{[1-(4-fluorophenyl)-4-methyl-1H-1,2,3-triazol-5-yl]methoxy}-5,6,7,8-tetrahydro-1,6-naphthyridine-6-carbonyl)-1-methylpyrrolidin-2-one]"
10,3.8 nM,"Cc1onc(-c2ccc(F)cc2)c1COc1ccc2c(n1)CCN(C(=O)N(C)C)C2 [Example 83, 2-{[3-(4-fluorophenyl)-5-methyl-1,2-oxazol-4-yl]methoxy}-N,N-dimethyl-5,6,7,8-tetrahydro-1,6-naphthyridine-6-carboxamide]"
11,5 nM,"Cc1onc(-c2ccc(F)cc2)c1COc1ccc2c(n1)CCN(C(=O)c1ccno1)C2 [Example 3, 2-{[3-(4-fluorophenyl)-5-methyl-1,2-oxazol-4-yl]methoxy}-6-(1,2-oxazole-5-carbonyl)-5,6,7,8-tetrahydro-1,6-naphthyridine]"
12,18 nM,"Cn1nnc(-c2ccc(F)cc2)c1COc1ccc2c(n1)CN(C(=O)C1CCCO1)C2 (stereo not shown) [Example 73, 4-(4-fluorophenyl)-1-methyl-5-({[6-(oxolane-2-carbonyl)-5H,6H,7H-pyrrolo[3,4-b]pyridin-2-yl]oxy}methyl)-1H-1,2,3-triazole]"
13,137 nM,"Cc1nnn(-c2ccc(F)cc2)c1COc1ccc2c(n1)CCN(C(=O)c1cccc(Cl)c1)C2 [Example 27, 6-(3-chlorobenzoyl)-2-{[1-(4-fluorophenyl)-4-methyl-1H-1,2,3-triazol-5-yl]methoxy}-5,6,7,8-tetrahydro-1,6-naphthyridine]"
14,108 nM,"Cc1nnn(-c2ccc(F)cc2)c1COc1ccc2c(n1)CCN(C(=O)Nc1ccccc1Cl)C2 [Example 79, N-(2-chlorophenyl)-2-{[1-(4-fluorophenyl)-4-methyl-1H-1,2,3-triazol-5-yl]methoxy}-5,6,7,8-tetrahydro-1,6-naphthyridine-6-carboxamide]"
15,30 nM,"Cc1nnn(-c2ccc(F)cc2)c1COc1ccc2c(n1)CCN(C(=O)N(C)C)C2 [Example 76, 2-{[1-(4-fluorophenyl)-4-methyl-1H-1,2,3-triazol-5-yl]methoxy}-N,N-dimethyl-5,6,7,8-tetrahydro-1,6-naphthyridine-6-carboxamide]"
16,38 nM,"Cc1nnn(-c2ccc(F)cc2)c1COc1ccc2c(n1)CCN(C(=O)N1CCOCC1)C2 [Example 80, 2-{[1-(4-fluorophenyl)-4-methyl-1H-1,2,3-triazol-5-yl]methoxy}-6-(morpholine-4-carbonyl)-5,6,7,8-tetrahydro-1,6-naphthyridine]"
17,56 nM,"Cn1nnc(-c2ccc(F)cc2)c1COc1ccc2c(n1)CN(C(=O)C1CCOC1)C2 (stereo not shown) [Example 71, 4-(4-fluorophenyl)-1-methyl-5-({[6-(oxolane-3-carbonyl)-5H,6H,7H-pyrrolo[3,4-b]pyridin-2-yl]oxy}methyl)-1H-1,2,3-triazole]"
18,13 nM,"COCC(=O)N1CCc2nc(OCc3c(C)nnn3-c3ccc(Cl)cc3)ccc2C1 [Example 42, 1-(2-{[1-(4-chlorophenyl)-4-methyl-1H-1,2,3-triazol-5-yl]methoxy}-5,6,7,8-tetrahydro-1,6-naphthyridin-6-yl)-2-methoxyethan-1-one]"
19,7.8 nM,"Cc1onc(-c2ccc(F)cc2)c1COc1ccc2c(n1)CCN(C(=O)C1CC1)C2 [Example 5, 6-cyclopropanecarbonyl-2-{[3-(4-fluorophenyl)-5-methyl-1,2-oxazol-4-yl]methoxy}-5,6,7,8-tetrahydro-1,6-naphthyridine]"
20,49 nM,"Cc1nnn(-c2ccc(F)cc2)c1COc1ccc2c(n1)CCN(C(=O)C1CC1)C2 [Example 19, 6-cyclopropanecarbonyl-2-{[1-(4-fluorophenyl)-4-methyl-1H-1,2,3-triazol-5-yl]methoxy}-5,6,7,8-tetrahydro-1,6-naphthyridine]"
21,29 nM,"CC(C)C(=O)N1Cc2ccc(OCc3c(-c4ccc(F)cc4)nnn3C)nc2C1 [Example 72, 1-(2-{[4-(4-fluorophenyl)-1-methyl-1H-1,2,3-triazol-5-yl]methoxy}-5H,6H,7H-pyrrolo[3,4-b]pyridin-6-yl)-2-methylpropan-1-one]"
22,14 nM,"Cc1onc(-c2ccc(F)cc2)c1COc1ccc2c(n1)CCN(C(=O)C(F)(F)F)C2 [Example 12, 2,2,2-trifluoro-1-(2-{[3-(4-fluorophenyl)-5-methyl-1,2-oxazol-4-yl]methoxy}-5,6,7,8-tetrahydro-1,6-naphthyridin-6-yl)ethan-1-one]"
23,5.7 nM,"Cc1nnn(-c2ccc(F)cc2)c1COc1ccc2c(n1)CN(C(=O)C1CCOC1)C2 (stereo not shown) [Example 62, 1-(4-fluorophenyl)-4-methyl-5-({[6-(oxolane-3-carbonyl)-5H,6H,7H-pyrrolo[3,4-b]pyridin-2-yl]oxy}methyl)-1H-1,2,3-triazole]"
24,44 nM,"Cc1nnn(-c2ccc(F)cc2)c1COc1ccc2c(n1)CCN(C(=O)C1(C)CCOC1)C2 (stereo not shown) [Example 31, 2-{[1-(4-fluorophenyl)-4-methyl-1H-1,2,3-triazol-5-yl]methoxy}-6-(3-methyloxolane-3-carbonyl)-5,6,7,8-tetrahydro-1,6-naphthyridine]"
25,46 nM,"Cn1nnc(-c2ccc(F)cc2)c1COc1ccc2c(n1)CN(C(=O)C1CCCOC1)C2 (stereo not shown) [Example 74, 4-(4-fluorophenyl)-1-methyl-5-({[6-(oxane-3-carbonyl)-5H,6H,7H-pyrrolo[3,4-b]pyridin-2-yl]oxy}methyl)-1H-1,2,3-triazole]"
26,9.8 nM,"CC(=O)N1CCc2nc(OCc3c(C)nnn3-c3ccc(Cl)cc3)ccc2C1 [Example 36, 1-(2-{[1-(4-chlorophenyl)-4-methyl-1H-1,2,3-triazol-5-yl]methoxy}-5,6,7,8-tetrahydro-1,6-naphthyridin-6-yl)ethan-1-one]"

row,Structure (SMILES),Ki
1,"Cn1nnc(-c2ccc(F)cc2)c1COc1ccc2c(n1)CN(C(=O)CF)C2 [Example 70, 2-fluoro-1-(2-{[4-(4-fluorophenyl)-1-methyl-1H-1,2,3-triazol-5-yl]methoxy}-5,7-dihydro-6H-pyrrolo[3,4-b]pyridin-6-yl)ethanone]",9.2 nM
2,"Cc1nnn(-c2ccc(F)cc2)c1COc1ccc2c(n1)CN(C(=O)CF)C2 [Example 54, 2-fluoro-1-(2-{[1-(4-fluorophenyl)-4-methyl-1H-1,2,3-triazol-5-yl]methoxy}-5,7-dihydro-6H-pyrrolo[3,4-b]pyridin-6-yl)ethanone]",5.3 nM
